In assay [1] the target is T1, Sphingosine 1-phosphate receptor 4 (Homo sapiens, UniProt O95977).
T1 sequence (O95977 whole entry): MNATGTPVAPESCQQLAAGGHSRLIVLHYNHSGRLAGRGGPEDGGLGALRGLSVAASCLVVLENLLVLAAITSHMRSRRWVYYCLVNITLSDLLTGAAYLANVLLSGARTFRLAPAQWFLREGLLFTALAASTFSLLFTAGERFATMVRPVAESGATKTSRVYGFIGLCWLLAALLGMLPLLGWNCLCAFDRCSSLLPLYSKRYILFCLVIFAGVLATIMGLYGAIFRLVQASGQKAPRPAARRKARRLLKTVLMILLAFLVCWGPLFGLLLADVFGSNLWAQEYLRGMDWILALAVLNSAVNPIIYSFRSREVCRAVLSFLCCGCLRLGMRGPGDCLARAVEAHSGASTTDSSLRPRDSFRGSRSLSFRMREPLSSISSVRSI
In words: Effective concentration against sphingosine 1-phosphate receptor 4 determined by a [c-35S]-GTP binding assay.

The target of assay [2] is T2, Sphingosine 1-phosphate receptor 5 (Homo sapiens, UniProt Q9H228). In words: Maximal efficacy against sphingosine 1-phosphate receptor 5 determined by a [c-35S]-GTP binding assay.
T2 sequence (Q9H228 whole entry): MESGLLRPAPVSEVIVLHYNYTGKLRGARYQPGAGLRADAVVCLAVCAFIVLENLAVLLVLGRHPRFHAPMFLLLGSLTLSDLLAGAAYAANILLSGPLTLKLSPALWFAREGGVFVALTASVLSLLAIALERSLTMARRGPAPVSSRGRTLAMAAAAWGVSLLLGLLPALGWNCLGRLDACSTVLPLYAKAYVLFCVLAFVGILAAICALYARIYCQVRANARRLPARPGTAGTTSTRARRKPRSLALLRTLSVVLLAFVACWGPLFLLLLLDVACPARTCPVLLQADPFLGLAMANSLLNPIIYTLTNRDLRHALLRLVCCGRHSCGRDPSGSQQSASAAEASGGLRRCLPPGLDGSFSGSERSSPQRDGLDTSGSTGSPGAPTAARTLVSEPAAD
In assay [3] the target is T3, Sphingosine 1-phosphate receptor 3 (Homo sapiens, UniProt Q99500). The assay can be described thus: Effective concentration against sphingosine 1-phosphate receptor 3 determined by a [c-35S]-GTP binding assay.
T3 sequence (Q99500 whole entry): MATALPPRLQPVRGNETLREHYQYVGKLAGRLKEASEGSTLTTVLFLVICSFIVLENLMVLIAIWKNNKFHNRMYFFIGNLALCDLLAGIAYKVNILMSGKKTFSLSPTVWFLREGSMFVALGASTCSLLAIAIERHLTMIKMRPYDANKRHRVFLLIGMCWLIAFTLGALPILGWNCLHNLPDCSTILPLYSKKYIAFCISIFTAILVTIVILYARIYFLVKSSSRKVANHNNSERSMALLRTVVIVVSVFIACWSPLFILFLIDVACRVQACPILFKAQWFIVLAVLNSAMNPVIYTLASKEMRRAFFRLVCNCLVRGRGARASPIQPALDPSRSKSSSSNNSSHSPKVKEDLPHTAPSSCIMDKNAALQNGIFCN
In assay [4] the target is T4, Sphingosine 1-phosphate receptor 2 (Homo sapiens, UniProt O95136). The assay can be described thus: Maximal efficacy against sphingosine 1-phosphate receptor 2 determined by a [c-35S]-GTP binding assay;.
T4 sequence (O95136 whole entry): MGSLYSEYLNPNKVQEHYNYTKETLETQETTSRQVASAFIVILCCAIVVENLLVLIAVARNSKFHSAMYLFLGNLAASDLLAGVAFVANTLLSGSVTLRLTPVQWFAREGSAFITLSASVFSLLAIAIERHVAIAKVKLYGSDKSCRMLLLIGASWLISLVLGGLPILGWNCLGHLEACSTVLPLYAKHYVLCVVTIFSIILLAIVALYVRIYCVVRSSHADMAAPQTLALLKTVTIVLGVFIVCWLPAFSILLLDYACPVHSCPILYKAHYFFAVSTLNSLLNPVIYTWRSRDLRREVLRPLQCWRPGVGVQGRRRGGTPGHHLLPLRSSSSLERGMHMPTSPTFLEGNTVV
Assay [5] addresses T2, Sphingosine 1-phosphate receptor 5. The assay can be described thus: Effective concentration against sphingosine 1-phosphate receptor 5 determined by a [c-35S]-GTP binding assay.
For assay [6], the target named is T3, Sphingosine 1-phosphate receptor 3. The assay can be described thus: Maximal efficacy against sphingosine 1-phosphate receptor 3 determined by a [c-35S]-GTP binding assay.
Assay [7] has as its target T5, Sphingosine 1-phosphate receptor 4 (Homo sapiens) (UniProt O95977).
T5 sequence (whole entry): T1 sequence (O95977 whole entry)
The assay can be described thus: Maximal efficacy against sphingosine 1-phosphate receptor 4 determined by a [c-35S]-GTP binding assay.

Assay [8] has as its target T6, Sphingosine 1-phosphate receptor 1 (Homo sapiens, UniProt P21453). The assay can be described thus: Effective concentration against sphingosine-1-phosphate receptor 1 determined by a [c-35S]-GTP binding assay.
Assay [9] deals with T6, Sphingosine 1-phosphate receptor 1. The assay can be described thus: Maximal efficacy against sphingosine-1-phosphate receptor 1 determined by a [c-35S]-GTP binding assay.
Assay [10] addresses T4, Sphingosine 1-phosphate receptor 2. The assay can be described thus: Maximal efficacy against sphingosine 1-phosphate receptor 2 determined by a [c-35S]-GTP binding assay; no agonist activity.
Assay [11] addresses T5, Sphingosine 1-phosphate receptor 4 (Homo sapiens). The assay can be described thus: Maximal efficacy against sphingosine 1-phosphate receptor 4 determined by a [c-35S]-GTP binding assay; no agonist activity.
The target of assay [12] is T3, Sphingosine 1-phosphate receptor 3. The assay can be described thus: Maximal efficacy against sphingosine 1-phosphate receptor 3 determined by a [c-35S]-GTP binding assay; no agonist activity.
For assay [13], the target named is T4, Sphingosine 1-phosphate receptor 2. In words: Maximal efficacy against sphingosine 1-phosphate receptor 2 determined by a [c-35S]-GTP binding assay.
The target is the same in assay [14]. In words: Effective concentration against sphingosine 1-phosphate receptor 2 determined by a [c-35S]-GTP binding assay.

The term EC50 denotes the midpoint of the concentration-response curve. Low values mean a more potent agent, high ones a less potent agent.

T6 sequence (P21453 whole entry): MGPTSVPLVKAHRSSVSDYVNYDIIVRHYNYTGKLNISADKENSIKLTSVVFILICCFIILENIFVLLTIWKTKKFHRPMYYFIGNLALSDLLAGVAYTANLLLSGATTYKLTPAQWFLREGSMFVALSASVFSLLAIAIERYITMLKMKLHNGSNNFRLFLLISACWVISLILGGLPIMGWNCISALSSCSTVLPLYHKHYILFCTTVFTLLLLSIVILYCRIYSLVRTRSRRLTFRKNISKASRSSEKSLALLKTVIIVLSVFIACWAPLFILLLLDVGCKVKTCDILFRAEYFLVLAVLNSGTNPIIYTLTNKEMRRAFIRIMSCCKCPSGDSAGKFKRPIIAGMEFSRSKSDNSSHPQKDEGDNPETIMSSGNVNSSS

As to `CCCCCCCCc1ccc(-c2c[nH]c([C@@H](N)COP(=O)(O)O)n2)cc1`, the EC50 in assay [1] stood at 150 nM; in assay [3], 330 nM; in assay [5] it was 12 nM; in assay [8], 4 nM. The Emax was 0.69 in [2]; 0 in assay [4]; 0.42 in assay [6]; 0.79 in assay [7]; 0.69 in [9].

In the case of `CCCCCCCCc1ccc(-c2c[nH]c(C(C)(N)CO)n2)cc1` (configuration not stated), the Emax in assay [10], in [2], in [11], in assay [12] and in [9] was 0 throughout.

As to `CCCCCCCCc1ccc(-c2c[nH]c(C(C)(N)COP(O)(O)=S)n2)cc1` (configuration not stated), the EC50 in assay [1] amounted to 170 nM; in assay [3], 1600 nM; in assay [5], 51 nM; in assay [8], 9.8 nM. In addition, the Emax in assay [13] was found to be 0; in assay [2] it was 0.6; in [6] it was 0.44; in assay [7] it was 0.68; in [9], 0.87.

As for `CCCCCCCCc1ccc(-c2c[nH]c([C@H](N)COP(=O)(O)O)n2)cc1`, the EC50 in assay [1] came to 400 nM; in assay [3], 1700 nM; in [5], 37 nM; in assay [8], 7 nM. Besides, the Emax in assay [13] came to 0; in assay [2], 0.73; in assay [6] it was 0.56; in [7], 1; in assay [9], 0.75.

For `CCCCCCCCc1ccc(-c2c[nH]c([C@@H](N)COP(O)(O)=S)n2)cc1`, the EC50 in [1] amounted to 190 nM; in assay [3], 690 nM; in [5], 29 nM; in [8], 6.4 nM. Further, the Emax in assay [13] is 0; in [2], 0.82; in assay [6], 0.45; in assay [7] it was 0.82; in [9], 0.67.

For the compound `CCCCCCCCCCCCC/C=C/[C@@H](O)[C@@H](N)COP(=O)(O)O`, the Emax in assay [13], in assay [2], in assay [6], in assay [7] and in assay [9] was 1 throughout.

In the case of `CCCCCCCCc1ccc(-c2c[nH]c(C(N)(CO)COP(=O)(O)O)n2)cc1` (configuration not stated), the EC50 came out at 160 nM in assay [1]; 630 nM in assay [3]; 17 nM in assay [5]; 7.9 nM in assay [8]; 18 nM in assay [14]. Moreover, the Emax was 0.95 in [13]; 0.66 in assay [2]; 0.21 in assay [6]; 0.87 in assay [7]; 0.91 in assay [9].

`CCCCCCCCc1ccc(-c2c[nH]c([C@H](N)CO)n2)cc1`: the EC50 in [1] stood at 7400 nM; in assay [3] it was 2700 nM; in assay [5], 860 nM; in [8] it was 2700 nM. The Emax in assay [13] was found to be 0; in assay [2], 0.83; in assay [6], 0.38; in assay [7], 0.9; in [9], 0.98.

In turn, `CCCCCCCCc1ccc(CCC(N)(CO)COP(=O)(O)O)cc1` (configuration not stated) returned an EC50 in [1] of 41 nM. Also, the Emax in assay [13] came to 0; in assay [2], 0.56; in assay [6] it was 0.5; in [7], 0.78; in assay [9], 1.

With `CCCCCCCCc1ccc(-c2c[nH]c(C(C)(N)COP(=O)(O)O)n2)cc1` (configuration not stated), the concentration for a half-maximal effect (EC50) in [1] is 91 nM; in [3] it was 780 nM; in assay [5], 26 nM; in [8], 4.7 nM. Besides, the Emax in [13] worked out at 0; in assay [2], 0.72; in assay [6] it was 0.53; in assay [7], 0.94; in assay [9], 0.88.

Consider `CCCCCCCCc1ccc(-c2c[nH]c(C(N)(CO)CO)n2)cc1`, for which the EC50 in assay [1] came out at 660 nM; in [5] it was 6700 nM; in assay [8], 5100 nM. Further, the Emax was found to be 0 in assay [13]; 0.48 in assay [2]; 0 in assay [6]; 0.79 in assay [7]; 0.66 in [9].

Turning to `CCCCCCCCc1ccc(-c2c[nH]c(C(N)(CO)COP(O)(O)=S)n2)cc1` (configuration not stated), the EC50 in [1] amounted to 89 nM; in assay [3], 790 nM; in [5] it was 16 nM; in [8], 150 nM. For the same compound, the Emax in assay [13] came to 0; in [2] it was 0.56; in assay [6] it was 0.68; in assay [7] it was 0.72; in assay [9] it was 0.66.
